Measured values from publication PMC12362582, “Linker Methylation as a Strategy to Enhance PROTAC Oral Bioavailability: Insights from Molecular Properties and Conformational Analysis” (Journal of Medicinal Chemistry, 2025).
Like-named read-outs stand apart in the source and are kept apart here.

How the values were obtained:
[1] = In vivo pharmacokinetics in mice (oral bioavailability, clearance); details: for bioavailability: female, BomTac:NMRI-Foxn1nu, mouse, plasma, mice, AUC_DN oral (typically 30 mg/kg) / AUC_DN IV (5 mg/kg) * 100, read-out: F% (oral bioavailability in mice); for Mouse CL (% Qh): mouse clearance as % of hepatic blood flow
Description: Bioavailability in mice was determined by comparing plasma exposure after oral administration with plasma exposure after intravenous administration (see Experimental Part). The investigated data set includes PROTACs with very low (F < 1%), low (F < 5%) and medium/high (F > 5%, in bold in Table ) oral bioavailability. Only low-clearance PROTACs were investigated, with clearance of less than 10% of the hepatic blood flow, to avoid extensive hepatic first-pass effect (Mouse CL see Table S2).
The authors confirm that the research in this study complies with all relevant ethical regulations. All animal studies were approved by the internal ethics committee (called “ethics committee”) of Boehringer Ingelheim RCV GmbH & Co KG in the department of Cancer Pharmacology and Disease Positioning. Furthermore, all protocols were approved by the Austrian governmental committee (MA 60 Veterinary office; approval numbers GZ: 903122/2017/21, GZ: 154399/2018/16, GZ: MA 58–670393–2019–18, GZ: MA 58–546776–2022–13). Female BomTac:NMRI-Foxn1nu mice were obtained from Taconic Denmark at an age of 6–8 weeks. After arrival at the local AAALAC accredited animal facility at Boehringer Ingelheim RCV GmbH & Co KG mice were allowed to adjust to housing conditions for at least 5 days before the start of the experiment, i.e. mice in all experiments were 7–9 weeks old. Mice were group-housed under pathogen-free and controlled environmental conditions (21 ± 1.5 °C temperature, 55 ± 10% humidity) and handled according to the institutional, governmental and European Union guidelines (Austrian Animal Protection Laws, GV SOLAS and FELASA). Animal studies were approved as described in the Ethics section. Food and water were provided ad libitum.
All pharmacokinetic studies were conducted with three mice per dose group and testing route. Oral bioavailability was determined by comparing the dose-normalized area under the plasma concentration–time curve (AUC_DN) following oral administration to the AUC_DN after intravenous (IV) administration of the same drug. All oral administrations were conducted with a volume of application of 10 mL/kg, typically at a dose of 30 mg/kg as a solution in a 25% to 40% HP-β-CD at a pH range of 4 to 5. Intravenous administrations were conducted at a dose of 5 mg/kg, with a volume of application of 5 mL/kg in 25% HP-β-CD at a pH of 5. Blood samples were obtained from the vena saphena at five time points after each administration, with the aim of measuring the drug concentration in the plasma. The concentrations of the compound in plasma samples were determined by quantitative HPLC-MS/MS, employing an internal standard. Calibration and quality control samples were prepared using blank plasma from untreated animals. The samples were precipitated with acetonitrile and subsequently injected into an HPLC system (Agilent 1200). The separation was conducted using a gradient of 5 mmol/L ammonium acetate at pH 4.0 and acetonitrile with 0.1% formic acid on a 2.1 mm by 50 mm XBridge BEH C18 reversed-phase column with 2.5 μm particles (Waters). The HPLC was interfaced with an ESI-operated triple quadrupole mass spectrometer (5000 or 6500+ Triple Quad System, SCIEX) operated in multiple reaction monitoring mode. The chromatograms were analyzed using Analyst (SCIEX), and the pharmacokinetic parameters, such as AUC_DN, were calculated using noncompartmental analysis with BI-proprietary software.
The oral bioavailability (F%) was calculated using the following formula: F% = AUC_DN_oral/AUC_DN_IV) * 100.

[2] = BRlogD chromatographic lipophilicity (XBridge Shield RP18); assay type: physicochemical; details: XBridge Shield RP18 HPLC column (130 Å, 5 µm, 5 cm × 4.6 mm); 60% ACN / 40% 20 mM ammonium acetate, pH 7
Description: Lipophilicity was assessed using three chromatographic descriptors, each simulating distinct aspects of membrane environments. BRlogD is a surrogate of the octanol/water distribution coefficient (log D oct) reflecting a general partitioning across biological membranes. Log k W ^IAM implements an Immobilized Artificial Membrane (IAM) column which provides a lipophilicity index in an environment resembling the membrane phospholipids. Finally, log k′80 PLRP-S reflects retention in a hydrophobic polymeric column environment, mimicking the nonpolar core of lipid bilayers, and acts as a surrogate for the toluene/water partition coefficient (log D tol). Lipophilicity remained within a moderate range across all systems.
All chromatographic measurements were performed using the Thermo Scientific Inc. HPLC DIONEX Ultimate 3000 connected to an RS diode array and the Chromeleon 7.2.10 software (www.thermofisher.com). 1.5 mL HPLC vials, 9 mm PP screw caps, and high-performance ergonomic single-channel variable volume pipettors from VWR Signature were used. A Eutech pH Meter 2700 was used to regulate the pH of each buffer and sample (www.fishersci.com). For all the chromatographic descriptors, the mobile phase consisted of an acetonitrile solution (ACN) and 20 mM AAB, pH 7. Moreover, 10 μL was set as the volume of injection of compound concentrations ranging from 50 to 100 μg/mL in ACN/buffer mixtures. One mL/min was chosen as the isocratic flow rate and 30 °C as the oven temperature. However, each chromatographic system (RP) had its own conditions:
BRlogD as an analog of log Poct required the use of the XBridge Shield RP18 (130 Å, 5 μm, 5 cm × 4.6 mm) column by Waters (www.waters.com). The eluent was composed of a 60% ACN and 40% 20 mM ammonium acetate buffer (v/v) mixture. The retention time was measured for the analyte and the log k′60 was calculated (capacity factor k′60 = [t R (60% ACN) – t 0]/t 0) and then converted to the corresponding BRlogD value using the equation BRlogD = 3.31x + 2.79. In addition, acetone, caffeine, ibuprofen, lidocaine, phenol, and a mixture of uracile, acetophenone, and toluene were used as gold standards.

[3] = Bidirectional Caco-2 permeability and efflux ratio assay; assay type: in vitro ADME; details: human
[4] = with Zosuquidar (P-gp inhibitor), concentration not given, Caco-2, in the presence of a Pgp inhibitor (Zosuquidar), read-out: ER (+Pgp inhibitor)
[5] = Caco-2, in the absence of an inhibitor, read-out: ER (Caco-2 efflux ratio)

| Compound | bioavailability [1] [%] | Mouse CL (% Qh) [1] [% Qh] | chromatographic logD [2] | efflux ratio at 1 μM [3, 4] | efflux ratio at 1 μM [3, 5] |
| --- | --- | --- | --- | --- | --- |
| Cc1ncsc1-c1ccc([C@H](CCCN2CCC(c3ccc4c(c3)n(C3CCCC3)c3nc(=O)c5c(Br)cccc5n43)CC2)NC(=O)[C@@H]2C[C@@H](O)CN2C(=O)[C@@H](NC(=O)C2(F)CC2)C(C)(C)C)cc1 [A3-1] | 0.6 | 7.9 | 2.29 | 1.8 | – |
| Cc1ncsc1-c1ccc([C@H](C[C@H](C)CN2CCC(c3ccc4c(c3)n(C3CCCC3)c3nc(=O)c5c(Br)cccc5n43)CC2)NC(=O)[C@@H]2C[C@@H](O)CN2C(=O)[C@@H](NC(=O)C2(F)CC2)C(C)(C)C)cc1 [A3-2] | 5.4 | 3.6 | 3.29 | 0.9 | 9 |
| Cc1ncsc1-c1ccc([C@H](C[C@@H](C)CN2CCC(c3ccc4c(c3)n(C3CCCC3)c3nc(=O)c5c(Br)cccc5n43)CC2)NC(=O)[C@@H]2C[C@@H](O)CN2C(=O)[C@@H](NC(=O)C2(F)CC2)C(C)(C)C)cc1 [A3-3] | 16.4 | 9.3 | 3.32 | 0.4 | 5.1 |
| Cc1ncsc1-c1ccc([C@H](CCCCCN2CCC(c3ccc4c(c3)n(C3CCCC3)c3nc(=O)c5c(Br)cccc5n43)CC2)NC(=O)[C@@H]2C[C@@H](O)CN2C(=O)[C@@H](NC(=O)C2(F)CC2)C(C)(C)C)cc1 [A5-1] | 4.3 | 2.5 | 2.46 | 1.6 | 24.2 |
| Cc1ncsc1-c1ccc([C@H](CC[C@H](C)CCN2CCC(c3ccc4c(c3)n(C3CCCC3)c3nc(=O)c5c(Br)cccc5n43)CC2)NC(=O)[C@@H]2C[C@@H](O)CN2C(=O)[C@@H](NC(=O)C2(F)CC2)C(C)(C)C)cc1 [A5-2] | 22.1 | 2.3 | 2.76 | 1.6 | 7.5 |
| Cc1ncsc1-c1ccc([C@H](CC[C@@H](C)CCN2CCC(c3ccc4c(c3)n(C3CCCC3)c3nc(=O)c5c(Br)cccc5n43)CC2)NC(=O)[C@@H]2C[C@@H](O)CN2C(=O)[C@@H](NC(=O)C2(F)CC2)C(C)(C)C)cc1 [A5-3] | 31.5 | 3.9 | 2.8 | 1 | 3.3 |
| Cc1ncsc1-c1ccc([C@@H](CC[C@@H](C)CCN2CCC(c3ccc4c(c3)n(C3CCCC3)c3nc(=O)c5c(Br)cccc5n43)CC2)NC(=O)[C@@H]2C[C@@H](O)CN2C(=O)[C@@H](NC(=O)C2(F)CC2)C(C)(C)C)cc1 [A5-4] | 1.2 | 2.8 | 2.76 | 0.9 | – |

Continued, values first:

| bioavailability [1] [%] | Mouse CL (% Qh) [1] [% Qh] | chromatographic logD [2] | efflux ratio at 1 μM [3, 4] | efflux ratio at 1 μM [3, 5] | Compound |
| --- | --- | --- | --- | --- | --- |
| 0.9 | 8.5 | 2.64 | 3 | – | Cc1ncsc1-c1ccc([C@H](COCCN2CCC(c3ccc4c(c3)n(C3CCCC3)c3nc(=O)c5c(Br)cccc5n43)CC2)NC(=O)[C@@H]2C[C@@H](O)CN2C(=O)[C@@H](NC(=O)C2(F)CC2)C(C)(C)C)cc1 [B-1] |
| 1.7 | 5.4 | 2.64 | 1.8 | – | Cc1ncsc1-c1ccc([C@H](CO[C@H](C)CN2CCC(c3ccc4c(c3)n(C3CCCC3)c3nc(=O)c5c(Br)cccc5n43)CC2)NC(=O)[C@@H]2C[C@@H](O)CN2C(=O)[C@@H](NC(=O)C2(F)CC2)C(C)(C)C)cc1 [B-2] |
| 2.3 | 7.1 | 2.58 | 2.2 | 23.9 | Cc1ncsc1-c1ccc([C@H](CO[C@@H](C)CN2CCC(c3ccc4c(c3)n(C3CCCC3)c3nc(=O)c5c(Br)cccc5n43)CC2)NC(=O)[C@@H]2C[C@@H](O)CN2C(=O)[C@@H](NC(=O)C2(F)CC2)C(C)(C)C)cc1 [B-3] |
| 90.9 | 6.0 | 3.25 | 1.1 | 31.3 | Cc1ncsc1-c1ccc([C@H](COC(C)(C)CN2CCC(c3ccc4c(c3)n(C3CCCC3)c3nc(=O)c5c(Br)cccc5n43)CC2)NC(=O)[C@@H]2C[C@@H](O)CN2C(=O)[C@@H](NC(=O)C2(F)CC2)C(C)(C)C)cc1 [B-4] |
